Laboratory results as given in BindingDB's records for doi:10.7270/Q2SJ1J08 (University of Pittsburgh, 2007).

Biological target: T1, M-phase inducer phosphatase 2 (Homo sapiens, UniProt P30305)
T1 sequence (P30305 whole entry): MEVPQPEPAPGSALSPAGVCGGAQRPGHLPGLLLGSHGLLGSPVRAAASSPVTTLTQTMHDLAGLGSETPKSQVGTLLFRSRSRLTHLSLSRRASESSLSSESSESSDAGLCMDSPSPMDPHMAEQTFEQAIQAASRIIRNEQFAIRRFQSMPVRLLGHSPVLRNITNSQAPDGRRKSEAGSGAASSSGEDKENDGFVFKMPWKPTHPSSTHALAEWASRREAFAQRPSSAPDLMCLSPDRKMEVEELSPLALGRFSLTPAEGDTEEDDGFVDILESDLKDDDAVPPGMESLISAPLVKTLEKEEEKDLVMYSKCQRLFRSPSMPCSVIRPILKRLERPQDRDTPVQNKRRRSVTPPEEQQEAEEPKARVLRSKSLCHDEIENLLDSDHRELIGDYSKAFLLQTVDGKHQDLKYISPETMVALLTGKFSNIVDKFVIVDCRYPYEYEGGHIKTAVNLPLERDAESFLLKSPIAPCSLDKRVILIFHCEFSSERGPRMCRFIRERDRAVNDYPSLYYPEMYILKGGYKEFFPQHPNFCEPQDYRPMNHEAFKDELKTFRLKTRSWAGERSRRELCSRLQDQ
Experiment: Cdc25B phosphatase inhibition with DTT and catalase – biochemical, 25 mM DTT, probe assessment, dose response (AID 669)

Row | Compound | IC50 [µM]
1 | CC(=O)Nc1cc(OC(C)=O)c2nonc2c1OC(C)=O [Acetic acid 7-acetoxy-5-acetylamino-benzo[1,2,5]oxadiazol-4-yl ester] | > 50
2 | O=C1C=Cc2ccccc2/C1=C/NC12CN3CCN(CN(C3)C1)C2 [MLS000071484] | > 50
3 | [O-]/[N+](=C\c1ccc(OC(F)F)cc1)c1ccccc1 [1-[4-(difluoromethoxy)phenyl]-N-phenylmethanimine oxide] | > 50
4 | O=C(NC1(O)C(=O)c2ccccc2C1=O)c1ccccc1 [N-(2-hydroxy-1,3-dioxo-2-indenyl)benzamide] | > 50
5 | N#Cc1c(N)sc(=S)c2c1CCN(Cc1ccccc1)C2 [3-Amino-7-benzyl-1-thioxo-5,6,7,8-tetrahydro-1H-thiopyrano[3,4-c]pyridine-4-carbonitrile] | > 50
6 | Cc1ccccc1Nc1cc2ccccc2c(O)n1 [3-[(2-methylphenyl)amino]-2H-isoquinolin-1-one] | > 50
7 | Oc1nc(Nc2ccccc2)cc2ccccc12 [MLS000043701] | > 50
8 | Cn1ncnc2c(=O)n(C)c(=O)nc1-2 | > 50
9 | COc1ccc2noc3c2c1C(=O)c1ccccc1-3 [MLS000106874] | > 50
10 | CCOC(=O)C(C(=O)OCC)c1cc(Br)c2noc3c2c1C(=O)c1ccccc1-3 [MLS000038842] | > 50
11 | CCn1nc(-c2cccs2)nc2c(=O)n(C)c(=O)nc1-2 [1-ethyl-6-methyl-3-thiophen-2-yl-pyrimido[5,4-e][1,2,4]triazine-5,7-dione] | > 50
12 | O=C1Cc2ccccc2C(=O)N1CCc1ccccc1 [2-(2-phenylethyl)-4H-isoquinoline-1,3-dione] | > 50
13 | O=C1C=Cc2ccccc2C1=O [1,2-dihydronaphthalene-1,2-dione] | > 50
14 | CCn1nc(-c2ccccc2)nc2c(=O)n(C)c(=O)nc1-2 [1-Ethyl-6-methyl-3-phenyl-1H-pyrimido[5,4-e][1,2,4]triazine-5,7-dione] | > 50
15 | N#Cc1c(N2CCCC2)nc(N)c2c(N)nc(N3CCCC3)cc12 [SMR000061605] | > 50
16 | Nc1cccc2cnccc12 [isoquinolin-5-amine] | > 50
17 | CCOc1ccc2noc3c2c1C(=O)c1ccccc1-3 [MLS000106837] | > 50

The remaining lines, values ahead:

Row | IC50 [µM] | Compound
18 | 11.4 | COc1cccc2c(C)c(C(=O)O)[nH]c12
19 | > 50 | Cc1c(N=c2c(=O)c3ccccc3c2=O)c(=O)n(-c2ccccc2)n1C [MLS000105950]
20 | > 50 | c1ccc(CSc2nnc(-c3ccco3)c(-c3ccco3)n2)cc1 [MLS-0029114.0001]
21 | > 50 | [O-]/[N+](=C\c1ccncc1)c1ccccc1
22 | 40.9 | O=C(Nc1ccc2nc(-c3ccco3)c(-c3ccco3)nc2c1)N1CCCCCC1
23 | 8.69 | O=C(OC1CCCCC1)c1ccc2c(c1)C1C=CCC1C(C(=O)O)N2 (stereo not drawn) [SMR000019385]
24 | 20.5 | Cc1ccc2c(c1C)NC(C(=O)O)C1CC=CC21 (stereo not drawn)
25 | 16 | O=C(O)C1Nc2c(O)cccc2C2C=CCC12 (stereo not drawn)
26 | 12.1 | Cc1ccc2c(c1)C1C=CCC1C(C(=O)O)N2 (stereo not drawn) [MLS-0067149.0001]
27 | 13.2 | COc1cccc2c1NC(C(=O)O)C1CC=CC21 (stereo not drawn) [SMR000009698]
28 | 16.8 | COc1ccc(Br)cc1C=c1sc2nc(-c3ccco3)nn2c1=O [5-[(5-bromanyl-2-methoxy-phenyl)methylidene]-2-(furan-2-yl)-[1,3]thiazolo[3,2-b][1,2,4]triazol-6-one]
